Test results taken from patent US11512079B2, “Heterocycle substituted pyridine derivative antifungal agents” (Amplyx Pharmaceuticals, Inc., priority 2017, dated 2022).
Converted amounts (≈) assume the structure as drawn.

Experiments:
Type in all cases: cell-based
[1] = tested on: Rhizomucor pusillus 46342; test: In vitro antifungal assay (Example IX), microdilution broth, MEC; conditions: minimum effective concentration (shortening of hyphae), 35° C., 40-48 h, RPMI1640
In short: (§1)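 Spore suspensions of A. fumigatus and R. pusillus adjusted to 1-2×10^4 spores/mL in RPMI1640 and exposed to compound dilutions prepared in DMSO, by broth microdilution. MEC taken as the lowest concentration shortening hyphae versus DMSO control wells, read as for echinocandins.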

[2] = tested on: Aspergillus fumigatus MYA3626; test: as above; conditions: minimum effective concentration (shortening of hyphae), 35° C., 40-48 h, RPMI1640
In short: as §1

Candida albicans 90028 = test: In vitro antifungal assay (Example IX), microdilution broth, MIC; conditions: minimum inhibitory concentration (≥50% inhibition), 35° C., 40-48 h, RPMI1640
In short: (§2)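 CLSI broth microdilution in RPMI1640 with 2.5×10^3 cells/mL and final compound concentrations of 2-0.0019 μg/mL (1% DMSO). C. albicans 90028 plates were incubated at 35° C. for 40-48 h and C. neoformans H99 for 72 h. MIC was read as minimum inhibitory concentration, verified at 600 nm.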

[3] = tested on: Cryptococcus neoformans H99; test: as above; conditions: minimum inhibitory concentration (≥50% inhibition), 35° C., 72 h, RPMI1640
In short: as §2

Cryptococcus gattii = test: as above; conditions: minimum inhibitory concentration (≥50% inhibition), 35° C., 72 h (Cryptococcus), RPMI1640
Protocol: Preparation of Fungal Suspension. C. albicans 90028 and C. neoformans H99 strains were streaked from frozen stocks at −80° C. onto Sabouraud Dextrose Agar (SDA) plates. These were allowed to grow for 24 h (C. albicans) and 48 h (C. neoformans) at 35° C. before using them in the assay. 5-6 individual colonies were picked and diluted into sterile water to obtain a fungal suspension. The cell density of the suspension was determined and the culture diluted with RPMI1640 medium to obtain a fungal suspension of 2.5×10^3 cells/mL. The suspension was used in the MIC measurement as described below.
Preparation of Compound Stocks and Intermediate Dilutions: The compounds were weighed and DMSO was added to prepare a 10 mg/mL stock. The solutions were mixed by vortexing and sonication at 37° C. for 5-10 mins. The resulting solutions were sterile filtered using a PTFE filter, and aliquoted (12 μL or as needed) and stored at −20° C. Intermediate compound dilutions were prepared in sterile polypropylene tubes in 100% DMSO. The compound stock solution was first diluted in DMSO to obtain a concentration of […] to 0.19 μg/mL.
MIC/MEC Measurement: 99 μL 1 of the fungal suspension in RPMI1640 prepared as above was added to each well of a 96-well round bottom assay plate. 1 μL of the intermediate compound dilutions (200-0.19 μg/mL) were added to wells of the plate. This led to a 100-fold dilution of the intermediate dilutions resulting in a final compound concentration of 2-0.0019 μg/mL in the plate. 1 μL of DMSO was added to “No drug” control wells. The solutions were mixed by shaking on a plate shaker for 10 mins and plates incubated at 35° C. for 40-48 h (C. albicans, A. fumigatus, R. pusillus) and 72 h (Cryptococcus). […] This was validated by thorough mixing and reading at 600 nm on a microplate reader. The minimum concentration that led to shortening of hyphae as compared to hyphal growth in DMSO control wells was determined as the minimum effective concentration (MEC) for A. fumigatus and R. pusillus (as read for echinocandins). The use of the MIC and MEC endpoints against yeasts and molds, respectively has been described by Pfaller M A, Duncanson F, Messer S A, Moet G J, Jones R N, Castanheira M. Antimicrob Agents Chemother. 2011. 55(11):5155-8. In vitro activity of a novel broad-spectrum antifungal, E1210, tested against Aspergillus spp. determined by CLSI and EUCAST broth microdilution methods. Results are shown in Table 2, and the letters indicate the following ranges in μg/mL: […]

Structure (SMILES): N#CCc1ccc(Cc2cc(-c3cccnc3N)on2)cc1 [compound 2, 2-(4-((5-(2-aminopyridin-3-yl)isoxazol-3-yl)methyl)phenyl)acetonitrile]
- minimal effective concentration [1]: > 1 µg/mL
- minimal effective concentration [2]: 0.1 to 1 µg/mL
- MIC (Candida albicans 90028): > 1 µg/mL
- MIC [3]: > 1 µg/mL

Structure (SMILES): Nc1ncccc1-c1cc(Cc2ccc(/C=C/c3cccc(F)c3)cc2)no1 [compound 233, (E)-3-(3-(4-(3-fluorostyryl)benzyl)isoxazol-5-yl)pyridin-2-amine]
- MIC (Cryptococcus gattii): > 1 µg/mL
- minimal effective concentration [2]: 0.1 to 1 µg/mL
- MIC (Candida albicans 90028): > 1 µg/mL
- MIC [3]: > 1 µg/mL

Structure (SMILES): Nc1ncccc1-c1cc(Cc2cnc(Oc3cc(F)cc(F)c3)c(F)c2)no1 [compound 252, 3-(3-((6-(3,5-difluorophenoxy)-5-fluoropyridin-3-yl)methyl)isoxazol-5-yl)pyridin-2-amine]
- MIC (Cryptococcus gattii): 0.1 to 1 µg/mL (≈ 0.251 to 2.51 µM)
- minimal effective concentration [2]: 0.1 to 1 µg/mL
- MIC (Candida albicans 90028): 0.1 to 1 µg/mL (≈ 0.251 to 2.51 µM)
- MIC [3]: 0.1 to 1 µg/mL (≈ 0.251 to 2.51 µM)

Structure (SMILES): Nc1ncccc1-c1cc(Cc2cnc(OCc3cccc(F)c3)nc2)no1 [compound 249, 3-(3-((2-((3-fluorobenzyl)oxy)pyrimidin-5-yl)methyl)isoxazol-5-yl)pyridin-2-amine]
- MIC (Cryptococcus gattii): > 1 µg/mL
- minimal effective concentration [2]: 0.01 to 0.1 µg/mL
- MIC (Candida albicans 90028): 0.1 to 1 µg/mL (≈ 0.265 to 2.65 µM)
- MIC [3]: 0.1 to 1 µg/mL (≈ 0.265 to 2.65 µM)

Structure (SMILES): Nc1ncccc1-c1cc(Cc2cnc(Oc3ccccc3F)c(F)c2)no1 [compound 254, 3-(3-((5-fluoro-6-(2-fluorophenoxy)pyridin-3-yl)methyl)isoxazol-5-yl)pyridin-2-amine]
- MIC (Cryptococcus gattii): > 1 µg/mL
- minimal effective concentration [2]: 0.01 to 0.1 µg/mL
- MIC (Candida albicans 90028): 0.01 to 0.1 µg/mL (≈ 0.0263 to 0.263 µM)
- MIC [3]: 0.1 to 1 µg/mL (≈ 0.263 to 2.63 µM)

Structure (SMILES): Nc1ncccc1-c1cc(Cc2ccc(Nc3cc(F)cc(F)c3)nc2)no1 [compound 238, 5-((5-(2-aminopyridin-3-yl)isoxazol-3-yl)methyl)-N-(3,5-difluorophenyl)pyridin-2-amine]
- MIC (Cryptococcus gattii): 0.1 to 1 µg/mL (≈ 0.264 to 2.64 µM)
- minimal effective concentration [2]: > 1 µg/mL
- MIC (Candida albicans 90028): > 1 µg/mL
- MIC [3]: 0.1 to 1 µg/mL (≈ 0.264 to 2.64 µM)

Structure (SMILES): Nc1ncccc1-c1cc(Cc2cnc(OCc3ccccc3F)c(F)c2)no1 [compound 260, 3-(3-((5-fluoro-6-((2-fluorobenzyl)oxy)pyridin-3-yl)methyl)isoxazol-5-yl)pyridin-2-amine]
- MIC (Cryptococcus gattii): > 1 µg/mL
- minimal effective concentration [2]: 0.1 to 1 µg/mL
- MIC (Candida albicans 90028): 0.1 to 1 µg/mL (≈ 0.254 to 2.54 µM)
- MIC [3]: 0.1 to 1 µg/mL (≈ 0.254 to 2.54 µM)

Structure (SMILES): Nc1ncccc1-c1cc(Cc2ccc(OCc3cc(Cl)nc(Cl)c3)nc2)no1 [compound 219, 3-(3-((6-((2,6-dichloropyridin-4-yl)methoxy)pyridin-3-yl)methyl)isoxazol-5-yl)pyridin-2-amine]
- MIC (Cryptococcus gattii): > 1 µg/mL
- minimal effective concentration [2]: 0.1 to 1 µg/mL
- MIC (Candida albicans 90028): > 1 µg/mL
- MIC [3]: > 1 µg/mL

Structure (SMILES): Nc1ncccc1-c1cc(Cc2cnc(OCc3cccc(F)c3)c(F)c2)no1 [compound 251, 3-(3-((5-fluoro-6-((3-fluorobenzyl)oxy)pyridin-3-yl)methyl)isoxazol-5-yl)pyridin-2-amine]
- MIC (Cryptococcus gattii): 0.1 to 1 µg/mL (≈ 0.254 to 2.54 µM)
- minimal effective concentration [2]: 0.01 to 0.1 µg/mL
- MIC (Candida albicans 90028): 0.1 to 1 µg/mL (≈ 0.254 to 2.54 µM)
- MIC [3]: 0.1 to 1 µg/mL (≈ 0.254 to 2.54 µM)

Structure (SMILES): Nc1ncccc1-c1cc(Cc2ccc(Oc3ncccn3)c(F)c2)no1 [compound 259, 3-(3-(3-fluoro-4-(pyrimidin-2-yloxy)benzyl)isoxazol-5-yl)pyridin-2-amine]
- MIC (Cryptococcus gattii): > 1 µg/mL
- minimal effective concentration [2]: 0.01 to 0.1 µg/mL
- MIC (Candida albicans 90028): > 1 µg/mL
- MIC [3]: 0.1 to 1 µg/mL (≈ 0.275 to 2.75 µM)

Structure (SMILES): Nc1ncccc1-c1cc(Cc2cnc(OCC3CC3)c(F)c2)no1 [compound 247, 3-(3-((6-(cyclopropylmethoxy)-5-fluoropyridin-3-yl)methyl)isoxazol-5-yl)pyridin-2-amine]
- MIC (Cryptococcus gattii): > 1 µg/mL
- minimal effective concentration [2]: 0.01 to 0.1 µg/mL
- MIC (Candida albicans 90028): 0.01 to 0.1 µg/mL (≈ 0.0294 to 0.294 µM)
- MIC [3]: 0.1 to 1 µg/mL (≈ 0.294 to 2.94 µM)

Structure (SMILES): COc1ccc(OCc2ccc(Cc3cc(-c4cccnc4N)on3)cc2)cc1OC [compound 104, 3-(3-(4-((3,4-dimethoxyphenoxy)methyl)benzyl)isoxazol-5-yl)pyridin-2-amine]
- minimal effective concentration [1]: > 1 µg/mL
- minimal effective concentration [2]: > 1 µg/mL
- MIC (Candida albicans 90028): > 1 µg/mL
- MIC [3]: > 1 µg/mL

Structure (SMILES): Nc1ncccc1-c1cnn(Cc2ccc(Sc3ccccc3)nc2)c1 [compound 67, 3-(1-((6-(phenylthio)pyridin-3-yl)methyl)-1H-pyrazol-4-yl)pyridin-2-amine]
- minimal effective concentration [1]: > 1 µg/mL
- minimal effective concentration [2]: 0.1 to 1 µg/mL
- MIC (Candida albicans 90028): 0.1 to 1 µg/mL (≈ 0.278 to 2.78 µM)

Structure (SMILES): Nc1ncccc1-c1cc(Cc2ccc(OCc3ccc(F)nc3)cc2)no1 [compound 116, 3-(3-(4-((6-fluoropyridin-3-yl)methoxy)benzyl)isoxazol-5-yl)pyridin-2-amine]
- minimal effective concentration [1]: > 1 µg/mL
- minimal effective concentration [2]: 0.01 to 0.1 µg/mL
- MIC (Candida albicans 90028): > 1 µg/mL

Structure (SMILES): Nc1ncccc1-c1cc(Cc2cnc(Oc3ccccc3)c(F)c2)no1 [compound 255, 3-(3-((5-fluoro-6-phenoxypyridin-3-yl)methyl)isoxazol-5-yl)pyridin-2-amine]
- MIC (Cryptococcus gattii): > 1 µg/mL
- minimal effective concentration [2]: 0.01 to 0.1 µg/mL
- MIC (Candida albicans 90028): 0.01 to 0.1 µg/mL (≈ 0.0276 to 0.276 µM)
- MIC [3]: 0.1 to 1 µg/mL (≈ 0.276 to 2.76 µM)

Structure (SMILES): Nc1ncccc1-c1cc(Cc2cnc(Oc3cccc(F)c3)c(F)c2)no1 [compound 256, 3-(3-((5-fluoro-6-(3-fluorophenoxy)pyridin-3-yl)methyl)isoxazol-5-yl)pyridin-2-amine]
- MIC (Cryptococcus gattii): > 1 µg/mL
- minimal effective concentration [2]: 0.1 to 1 µg/mL
- MIC (Candida albicans 90028): 0.01 to 0.1 µg/mL (≈ 0.0263 to 0.263 µM)
- MIC [3]: 0.1 to 1 µg/mL (≈ 0.263 to 2.63 µM)

Structure (SMILES): N#Cc1ccc(COc2ccc(Cc3cc(-c4cccnc4N)on3)cn2)cc1 [compound 76, 4-(((5-((5-(2-aminopyridin-3-yl)isoxazol-3-yl)methyl)pyridin-2-yl)oxy)methyl)benzonitrile]
- minimal effective concentration [1]: 0.1 to 1 µg/mL
- minimal effective concentration [2]: 0.1 to 1 µg/mL
- MIC (Candida albicans 90028): > 1 µg/mL

Structure (SMILES): Nc1ncccc1-c1cc(Cc2ccc(Cn3cc4ccccc4n3)cc2)no1 [Example 171, 3-(3-(4-((2H-indazol-2-yl)methyl)benzyl)isoxazol-5-yl)pyridin-2-amine]
- minimal effective concentration [1]: 0.1 to 1 µg/mL
- minimal effective concentration [2]: 0.1 to 1 µg/mL
- MIC (Candida albicans 90028): 0.01 to 0.1 µg/mL (≈ 0.0262 to 0.262 µM)

Structure (SMILES): CC(C)=CCOc1ccc(Cc2cc(-c3cccnc3N)on2)cn1 [Example 166, 3-(3-((6-((3-methylbut-2-en-1-yl)oxy)pyridin-3-yl)methyl)isoxazol-5-yl)pyridin-2-amine]
- minimal effective concentration [1]: 0.1 to 1 µg/mL
- minimal effective concentration [2]: 0.01 to 0.1 µg/mL
- MIC (Candida albicans 90028): 0.1 to 1 µg/mL (≈ 0.297 to 2.97 µM)

Structure (SMILES): Nc1ncccc1-c1cc(Cc2ccc(/C=C/Cc3ccccc3)cc2)no1 [compound 194, (E)-3-(3-(4-(3-phenylprop-1-en-1-yl)benzyl)isoxazol-5-yl)pyridin-2-amine]
- minimal effective concentration [1]: > 1 µg/mL
- minimal effective concentration [2]: 0.1 to 1 µg/mL
- MIC (Candida albicans 90028): > 1 µg/mL

Structure (SMILES): Nc1ncccc1-c1cc(Cc2ccc(CNc3ncns3)cc2)no1 [compound 6, N-(4-((5-(2-aminopyridin-3-yl)isoxazol-3-yl)methyl)benzyl)-1,2,4-thiadiazol-5-amine]
- minimal effective concentration [1]: > 1 µg/mL
- minimal effective concentration [2]: > 1 µg/mL
- MIC (Candida albicans 90028): > 1 µg/mL

Structure (SMILES): Nc1ncccc1-c1cc(Cc2ccc(Cc3cncnc3)cc2)no1 [compound 21, 3-(3-(4-(pyrimidin-5-ylmethyl)benzyl)isoxazol-5-yl)pyridin-2-amine]
- minimal effective concentration [1]: > 1 µg/mL
- minimal effective concentration [2]: 0.1 to 1 µg/mL
- MIC (Candida albicans 90028): 0.1 to 1 µg/mL (≈ 0.291 to 2.91 µM)

Structure (SMILES): Nc1ncccc1-c1cc(Cc2ccc(OCCc3cc(F)c(F)cc3F)nc2)no1 [Example 158, 3-(3-((6-(2,4,5-trifluorophenethoxy)pyridin-3-yl)methyl)isoxazol-5-yl)pyridin-2-amine]
- minimal effective concentration [1]: > 1 µg/mL
- minimal effective concentration [2]: 0.1 to 1 µg/mL
- MIC (Candida albicans 90028): 0.1 to 1 µg/mL (≈ 0.235 to 2.35 µM)
